Like-named read-outs stand apart in the source and are kept apart here.
Columns and labels:
[1] = system: insulin-like growth factor 1 (IGF-1); experiment: Example 1: serum IGF-1 concentration; type: in vivo, Beagle dogs
Procedure: A controlled, seven-day study was performed to assess the impact of different capromorelin-dosing regimens on the production of insulin-like growth factor 1 (hereinafter “IGF-1”), growth hormone (hereinafter “GH”), and cortisol. The different capromorelin-dosing regimens were also assessed for the impact on food intake and changes in body mass.
Eighteen adult non-naïve Beagle dogs (nine males and nine females) were divided into one of three treatment groups. Each of the three treatment groups included three males and three females. Group A, which was the control group, was dosed twice per day, via oral gavage, with a vehicle (deionized water alone) and was used as a baseline data point for comparison against the active treatment regimens. Group B comprised an active treatment group that received two treatments per day, via oral gavage, with a capromorelin-containing composition with a concentration of 3 mg/kg capromorelin per treatment. Finally, Group C comprised an active treatment group that received one treatment per day, via oral gavage, with a capromorelin-containing composition with a concentration of 6 mg/kg capromorelin per treatment.
During the ten day study period, on an at least once-daily basis, each of the dogs was monitored for clinical observations, mortality, morbidity, body mass, and food consumption. […]

[2] = Example 5 seven-day study with flavored Formulation 9: food consumption and body weight; type: in vivo, Beagle dogs; settings: for more food consumed, Day 7 compared with Day −1: oral syringe, Formulation 9
Procedure: (§1) In order to further refine the dosing regimen that would provide an appropriate blood profile of capromorelin and desired results from the perspective of increased food intake and weight gain, an additional series of experiments were conducted. In these experiments, twenty-four adult (male and female) Beagle dogs weighing approximately 9 to 13 kilograms were randomly divided into four groups. Group 1 received a placebo formulation, without any active compound, two times per day; Group 2 received a composition comprising 3 mg/kg of body weight of capromorelin one time per day; Group 3 received a composition comprising 4.5 mg/kg of body weight of capromorelin one time per day; and Group 4 received a composition comprising 3 mg/kg of body weight of capromorelin two times per day.
(§2) In particular, on the first day of dosing, Day 1, through the last day of dosing, Day 7, the compositions were orally administered (i.e., using a syringe) to the animals in a flavored formulation of the following composition: […]
(§3) In these experiments, the animals were orally administered the flavored formulation at approximately 8:00 AM and, for Group 4 only, again at 6:00 PM. The animals were fed at 10:00 AM beginning seven days prior to Day 1 and continuing for the duration of the study. The animals were offered twice the normal amount of food. Approximately two hours after the food offering, the remainder was removed and weighed to assess food intake. This restricted feeding regime was started at Day −7 to allow the animals to transition to a normal feed intake before the study was initiated. Food consumption was calculated and recorded on Days −7 through Day 7. Baseline food consumption was calculated for each individual dog as the average number of grams of food consumed on Days −3, −2, and −1. The study period food consumption was calculated for each individual dog as the average of Days 1 through 7. Body weights were collected on Days −1, 3, and 7. Blood was collected for measurements of capromorelin, growth hormone, cortisol, and IGF-1 concentrations on Days 1, 4, and 7 at about 15 minutes pre-administration, immediately prior to dosing (0 minutes), 30, 45, 60, 90, 120, 240, 360, and/or 480 minutes post dosing via the jugular or other accessible vessel. As reflected by the data in FIGS. 61-74, the animals' response to the capromorelin-containing composition is largely in accord with the results discussed above.

[3] = Example 5: capromorelin concentration in serum; type: in vivo, Beagle dogs
Procedure: as §1, §2
as §3, with “Blood was collected for measurements of capromorelin, growth hormone, cortisol, and IGF-1 concentrations on Days 1, 4, and 7 at about 15 minutes pre-administration, immediately prior to dosing (0 minutes), 30, 45, 60, 90, 120, 240, 360, and/or 480 minutes post dosing via the jugular or other accessible vessel. As reflected by the data in FIGS. 61-74, the animals' response to the capromorelin-containing composition is largely in accord with the results discussed above.” left out

IGF-1 = experiment: Example 5: serum IGF-1; type: in vivo, Beagle dogs; settings: by Day 4, remained elevated on Day 7, Groups 2-4
Procedure: as §1, with “day. […]” for “day.”
In these experiments, the animals were orally administered the flavored formulation at approximately 8:00 AM and, for Group 4 only, again at 6:00 PM. […] Food consumption was calculated and recorded on Days −7 through Day 7. Baseline food consumption was calculated for each individual dog as the average number of grams of food consumed on Days −3, −2, and −1. The study period food consumption was calculated for each individual dog as the average of Days 1 through 7. […]

[4] = Example 12 cat probe formulation study and pharmacokinetic analysis; type: in vivo, cats; settings: for peak in serum concentration of capromorelin / time post administration of peak serum concentration: Day 0
Procedure: Similar to some of the other pharmacokinetic analyses conducted in dogs and cats, an additional pharmacokinetic study was conducted in cats to assess capromorelin formulations that allow sufficient drug to circulate to produce appetite stimulation and to define the capromorelin pharmacokinetic profile in cats. Briefly, twelve cats were randomized into Group 1 (six cats) and Group 2 (six cats). Group 1 received an intravenous formulation that included 0.75 mg/kg of capromorelin dissolved in sterile water and Group 2 received a previously tested formulation via oral gavage. Food consumption was determined daily for all cats. Specifically, animals were offered feed at approximately 11:00 AM, with the removal of feed at approximately 3:00 PM. Upon removal of feed, the amount consumed was calculated. […] Initially, the cats were given a seven day acclimation period to adjust to the experimental conditions and feed provided. After the acclimation period, on Day 0, all animals in Group 1 received an intravenous injection of the composition containing a dose of 0.75 mg/kg of capromorelin. On Day 0, the animals in Group 2 received an oral administration of the formulation via gavage at a dose of 3 mg/kg of capromorelin. On Day 0, serum samples were taken from the Group 1 animals at time 0 (pre-administration) and 5 minutes, 10 minutes, 30 minutes, 1 h, 2 h, 4 h, 6 h, 8 h, and 12 h post administration and serum samples were also taken from the Group 2 animals at time 0 (per-administration) and 15 minutes, 30 minutes, 45 minutes, 1 h, 2 h, 4 h, 6 h, 8 h, and 12 h post administration.

[5] = Group 1, intravenous 0.75 mg/kg

In the case of `CN1N=C2CCN(C(=O)[C@@H](COCc3ccccc3)NC(=O)C(C)(C)N)C[C@@]2(Cc2ccccc2)C1=O.O=C(O)C(O)C(O)C(=O)O` [capromorelin], the “serum IGF-1 levels versus deionized water three days after terminating treatment” value ([1]; Day 10) is reported as “not significantly different”, the “serum IGF-1 levels relative to deionized water” value ([1]; days 2, 4 and 7 of treatment, both doses) is reported as “remained consistently higher” and the “Comparison of Weight on Day −1 to Weight on Day 7 (X ± SD, %)” value (shortened to “Comparison of Weight … (X ± SD, %)”) ([2]; Group 2, 3 mg/kg 1x per day) is reported as 4.52 ± 1.67%. For the same compound, the “more food consumed, Day 7 compared with Day −1” value ([2]; Group 2, 3 mg/kg one time per day) was 42.7%, the “Comparison of Weight … (X ± SD, %)” value ([2]; Group 3, 4.5 mg/kg 1x per day) was 3.78 ± 2.93% and the “more food consumed, Day 7 compared with Day −1” value ([2]; Group 3, 4.5 mg/kg one time per day) was 34.5%. The “Comparison of Weight … (X ± SD, %)” value ([2]; Group 4, 3 mg/kg 2x per day) was 4.17 ± 1.35%, the “more food consumed, Day 7 compared with Day −1” value ([2]; Group 4, 3 mg/kg two times per day) was 31.5% and the “serum capromorelin by 8 hours” value ([3]; Days 1 and 7, Groups 2-4) was “back to baseline levels”. The “time post administration of initial spike of serum capromorelin” value ([3]; Days 1 and 7, Groups 2-4) was 30 min, the capromorelin accumulation ([3]; seven days of dosing) was “no evidence of capromorelin accumulation” and the “IGF-1 levels in treated animals” value (IGF-1) was “sustained increase”. For the same compound, the “peak in serum concentration of capromorelin” value [4, 5] was “around 625 ng/mL”, the “time post administration of peak serum concentration” value [4, 5] was “around 5 minutes” and the “peak in serum concentration of capromorelin” value ([4]; Group 2, oral gavage 3 mg/kg) was “around 150 ng/mL”. The “time post administration of peak serum concentration” value ([4]; Group 2, oral gavage 3 mg/kg) was “around 2 hours”, the clearance ([4]; cat, serum, Group 1, intravenous 0.75 mg/kg, read-out: clearance of capromorelin) was roughly 30 mL/min/kg and the half-life ([4]; cat, serum, Group 1, intravenous 0.75 mg/kg, read-out: terminal half-life of capromorelin (converted)) was roughly 54 min. For the same compound, the Cmax ([4]; cat, serum, Group 2, oral gavage 3 mg/kg) was 149 ng/mL and the half-life ([4]; cat, serum, Group 2, oral gavage 3 mg/kg, read-out: mean-terminal half-life (converted)) was 62.4 min.

From patent US11090292B2, “Compositions and methods of use of an inappetance-controlling compound” (Aratana Therapeutics, Inc., priority 2012, dated 2021)
